Data from patent US5190957A, “Treatment of multi-drug resistant tumors with quinolyl-and isoquinolyloxazole-2-ones” (Merrell Dow Pharmaceuticals Inc., priority 1992, dated 1993).
Where two headings read alike, the source gives them in different places.

Legend:
[1] = test system: CHO^R cells (vinblastine (VBL) resistant tumor cell line); assay: Reversal of multidrug resistance (MDR) in CHO^R cells: cell growth with test compound with or without vinblastine (VLB); format: cell-based; settings: 72 hr
Procedure: CHO^R cells were plated at a density of 1X105/35mm dish and were allowed to grow overight at 37° C. in a CO2 incubator. The medium was replaced with medium containing the compounds and vinblastine (0.2 μg/ml). The cells were allowed to grow for further 72 hr and the cell number was determined by Coulter counter after trypsiunization.

[2] = test system: multidrug-resistant tumors; settings: reported previously; cited from earlier work

CCCc1[nH]c(=O)oc1-c1ccnc2ccccc12 [4-PROPYL-5-(4-QUINOLINYL)-2(3H)-OXAZOLONE]
inhibition at 0.1 µg/mL ([1]; 0.1 μg/ml compound + vinblastine 0.2 μg/ml, read-out: % Inhibition of Cell Growth, Compound + VLB): 4% | inhibition at 0.1 µg/mL ([1]; 0.1 μg/ml compound, no VLB, read-out: % Inhibition of Cell Growth, Compound Only): 0% | inhibition at 1 µg/mL ([1]; 1 μg/ml compound + vinblastine 0.2 μg/ml, read-out: % Inhibition of Cell Growth, Compound + VLB): 43% | inhibition at 1 µg/mL ([1]; 1 μg/ml compound, no VLB, read-out: % Inhibition of Cell Growth, Compound Only): 0% | inhibition at 5 µg/mL ([1]; 5 μg/ml compound + vinblastine 0.2 μg/ml, read-out: % Inhibition of Cell Growth, Compound + VLB): 93% | inhibition at 5 µg/mL ([1]; 5 μg/ml compound, no VLB, read-out: % Inhibition of Cell Growth, Compound Only): 0% | inhibition at 10 µg/mL ([1]; 10 μg/ml compound + vinblastine 0.2 μg/ml, read-out: % Inhibition of Cell Growth, Compound + VLB): 93% | inhibition at 10 µg/mL ([1]; 10 μg/ml compound, no VLB, read-out: % Inhibition of Cell Growth, Compound Only): 14%

C=C[C@H]1C[N@@]2CC[C@H]1C[C@@H]2[C@@H](O)c1ccnc2ccc(OC)cc12 [Quinidine]
reversal of drug resistance in multidrug-resistant tumors [2]: reverse drug resistance

CC[C@]1(O)C[C@@H]2CN(CCc3c([nH]c4ccccc34)[C@@](C(=O)OC)(c3cc4c(cc3OC)N(C)[C@H]3[C@@](O)(C(=O)OC)[C@H](OC(C)=O)[C@]5(CC)C=CCN6CC[C@]43[C@@H]65)C2)C1 [VLB, vinblastine, reference compound]
effect on cell growth of VLB alone ([1]; VLB alone, 0.2 μg/ml): did not have any effect on cell growth

COc1ccc([C@@H]2Sc3ccccc3N(CCN(C)C)C(=O)[C@@H]2OC(C)=O)cc1 [diltiazem]
reversal of drug resistance in multidrug-resistant tumors [2]: reverse drug resistance

COC(=O)[C@H]1[C@H]2C[C@@H]3c4[nH]c5cc(OC)ccc5c4CCN3C[C@H]2C[C@@H](OC(=O)c2cc(OC)c(OC)c(OC)c2)[C@@H]1OC [reserpine]
reversal of drug resistance in multidrug-resistant tumors [2]: reverse drug resistance

COc1ccc(CCN(C)CCCC(C#N)(c2ccc(OC)c(OC)c2)C(C)C)cc1OC (stereo not shown) [verapamil]
reversal of drug resistance in multidrug-resistant tumors [2]: reverse drug resistance
